Measured values from ChEMBL document CHEMBL1681776, “A photoreactive probe that differentiates the binding sites of noncompetitive GABA receptor antagonists” (Bioorg Med Chem Lett, 2011).
pIC50: −log10 of the molar value. The source made the active and inactive calls. The calls are words filed in the database; no cut-off is given here.

What was measured:
[1] = (§1) Displacement of [3H]EBOB from Wistar rat brain membrane GABA receptor by liquid scintillation counting
[2] = (§2) Displacement of [3H]EBOB from housefly head membrane GABA receptor by liquid scintillation counting; set-up: species or system Musca domestica
Rattus norvegicus [3] = species on record: Rattus norvegicus; experiment: as §1
Musca domestica = experiment: as §2
Rattus norvegicus [4] = species on record: Rattus norvegicus; experiment: Displacement of [3H]EBOB from GABA receptor in 365 nm ultraviolet light irradiated Wistar rat brain P2 membrane by photoaffinity labeling experiment
Rattus norvegicus [5] = species on record: Rattus norvegicus; experiment: Displacement of [3H]EBOB from GABA receptor in 365 nm ultraviolet light irradiated Wistar rat brain P2 membrane by photoaffinity labeling experiment in presence of picrotoxinin measured after membrane washout
Rattus norvegicus [6] = species on record: Rattus norvegicus; experiment: Displacement of [3H]EBOB from GABA receptor in Wistar rat brain P2 membrane in presence of fipronil measured after membrane washout; type: cell membranes

Structure (SMILES) | pIC50 [1] | pIC50 [2] | Activity (Rattus norvegicus [3]) | Activity (Musca domestica) | Activity (Rattus norvegicus [4]) | Activity (Rattus norvegicus [5]) | Activity (Rattus norvegicus [6])
CC(C)(C)CCOC(=O)c1ccc(C#CCCC(=O)O)cc1 | 7.06 | 5.47 | – | – | – | – | –
COC(=O)CCC#Cc1ccc(C(=O)Oc2ccc(C3(C(F)(F)F)N=N3)cc2[N+](=O)[O-])cc1 | 5.83 | 6.62 | Dose-dependent effect | Dose-dependent effect | Active | inactive | Active
